Test: xn = mol fraction of the nth substance listed
Details: 101 kPa, Liquid; for viscosity: Capillary tube (Ostwald / Ubbelohde) method; for speed of sound: Cylindrical cavity resonance method

CCN1CCCC1=O [1-ethyl-2-pyrrolidinone] + O
Details	mass density [kg/m3]	speed of sound [m/s]	viscosity [mPa·s]
293 K, x1 = 0.022	1003.49	1574.8	1.593
293 K, x1 = 0.05	1010.45	1651.9	2.368
293 K, x1 = 0.1	1020.31	1711.9	4.149
293 K, x1 = 0.2	1026.26	1712.2	6.159
293 K, x1 = 0.3	1023.9	1677.6	6.189
293 K, x1 = 0.4	1022.18	1640.4	5.349
293 K, x1 = 0.5	1019.16	1610.7	4.506
293 K, x1 = 0.6	1014.04	1583.1	3.639
293 K, x1 = 0.7	1010.43	1562.1	3.13
293 K, x1 = 0.8	1006.66	1541.7	2.671
293 K, x1 = 0.9	1003.19	1526.1	2.458
293 K, x1 = 1	1000.55	1511.6	2.133
298 K, x1 = 0.022	1001.76	1580	1.433
298 K, x1 = 0.05	1007.34	1648.9	2.047
298 K, x1 = 0.1	1016.76	1699.4	3.418
298 K, x1 = 0.2	1021.82	1694.2	4.849
298 K, x1 = 0.3	1019.33	1658.6	5.029
298 K, x1 = 0.4	1016.58	1621.2	4.386
298 K, x1 = 0.5	1014.6	1591.5	3.856
298 K, x1 = 0.6	1009.45	1564	3.244
298 K, x1 = 0.7	1005.98	1542.9	2.836
298 K, x1 = 0.8	1002.26	1522.6	2.43
298 K, x1 = 0.9	998.84	1507	2.21
298 K, x1 = 1	996.24	1492.5	2.022
303 K, x1 = 0.022	999.83	1583.9	1.254
303 K, x1 = 0.05	1002.82	1645.1	1.767
303 K, x1 = 0.1	1013.12	1686.7	2.842
303 K, x1 = 0.2	1017.34	1675.8	4.088
303 K, x1 = 0.3	1014.71	1639.3	4.164
303 K, x1 = 0.4	1012.16	1601.7	3.621
303 K, x1 = 0.5	1010	1572.1	3.28
303 K, x1 = 0.6	1004.1	1544.6	2.86
303 K, x1 = 0.7	1001.5	1523.6	2.527
303 K, x1 = 0.8	997.83	1503.4	2.218
303 K, x1 = 0.9	994.48	1487.9	2.011
303 K, x1 = 1	991.93	1473.3	1.832
313 K, x1 = 0.022	995.35	1588.3	0.9966
313 K, x1 = 0.05	997.46	1634.8	1.327
313 K, x1 = 0.1	1005.63	1660.4	2.051
313 K, x1 = 0.2	1008.28	1639.1	2.879
313 K, x1 = 0.3	1005.38	1600.7	2.966
313 K, x1 = 0.4	1001.82	1562.8	2.6
313 K, x1 = 0.5	1000.71	1533.3	2.509
313 K, x1 = 0.6	995	1506	2.262
313 K, x1 = 0.7	992.48	1485.3	2.04
313 K, x1 = 0.8	988.94	1465.2	1.777
313 K, x1 = 0.9	985.71	1449.9	1.702
313 K, x1 = 1	983.26	1435.3	1.621
323 K, x1 = 0.022	989.91	1588.3	0.8044
323 K, x1 = 0.05	991.01	1622.3	1.073
323 K, x1 = 0.1	997.84	1633.2	1.358
323 K, x1 = 0.2	999.06	1602.1	2.164
323 K, x1 = 0.3	995.92	1561.9	2.234
323 K, x1 = 0.4	992.73	1523.7	2.014
323 K, x1 = 0.5	991.3	1494.4	1.986
323 K, x1 = 0.6	985.81	1467.5	1.856
323 K, x1 = 0.7	983.37	1447.1	1.67
323 K, x1 = 0.8	979.96	1427.3	1.54
323 K, x1 = 0.9	976.89	1412.2	1.435
323 K, x1 = 1	974.56	1398	1.358

— the NIST ThermoML archive (doi:10.1021/je9003959)
